Experimental findings from patent US10670605B2, “Cysteine reactive probes and uses thereof” (The Scripps Research Institute, priority 2015, dated 2020) are described below.

SMILES strings stand for the structures.

Assay in all cases: Competitive isoTOP-ABPP in situ (fragment-treated cells)
Holding throughout (format): cell-based

Assay [1] has as its target cysteines in MDA-MB-231 and Ramos cells (Homo sapiens, UniProt P46109). The settings on record: 200 μM, insitu.
Assay [2] addresses cysteines in MDA-MB-231 and Ramos cells (Homo sapiens, UniProt P68366).
In assay [3] the target is cysteines in MDA-MB-231 and Ramos cells (Homo sapiens, UniProt Q14790).
Chain of cysteines in MDA-MB-231 and Ramos cells (Homo sapiens, UniProt Q14790) (Q14790 217-479): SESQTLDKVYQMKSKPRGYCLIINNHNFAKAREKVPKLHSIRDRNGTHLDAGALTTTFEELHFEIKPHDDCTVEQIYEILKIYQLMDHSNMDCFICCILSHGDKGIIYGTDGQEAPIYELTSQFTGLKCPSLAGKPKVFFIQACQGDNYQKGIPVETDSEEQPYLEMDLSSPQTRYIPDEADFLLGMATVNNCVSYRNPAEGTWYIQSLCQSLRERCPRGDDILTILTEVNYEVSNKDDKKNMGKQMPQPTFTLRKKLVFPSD
Assay [4] concerns the target T1, cysteines in MDA-MB-231 and Ramos cells (Homo sapiens, UniProt Q9NRW3).
T1 sequence (Q9NRW3 1-190): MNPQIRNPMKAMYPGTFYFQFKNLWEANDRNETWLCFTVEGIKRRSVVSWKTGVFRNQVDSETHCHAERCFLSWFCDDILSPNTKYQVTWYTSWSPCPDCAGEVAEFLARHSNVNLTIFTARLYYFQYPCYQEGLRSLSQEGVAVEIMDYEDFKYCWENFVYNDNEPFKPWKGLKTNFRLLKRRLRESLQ

Assay [5] has as its target cysteines in MDA-MB-231 and Ramos cells (Homo sapiens, UniProt P45984).
Assay [6] concerns the target cysteines in MDA-MB-231 and Ramos cells (Homo sapiens, UniProt Q5MNZ6).
The target in assay [7] is T2, cysteines in MDA-MB-231 and Ramos cells (Homo sapiens, UniProt O14929).
T2 sequence (O14929 1-419): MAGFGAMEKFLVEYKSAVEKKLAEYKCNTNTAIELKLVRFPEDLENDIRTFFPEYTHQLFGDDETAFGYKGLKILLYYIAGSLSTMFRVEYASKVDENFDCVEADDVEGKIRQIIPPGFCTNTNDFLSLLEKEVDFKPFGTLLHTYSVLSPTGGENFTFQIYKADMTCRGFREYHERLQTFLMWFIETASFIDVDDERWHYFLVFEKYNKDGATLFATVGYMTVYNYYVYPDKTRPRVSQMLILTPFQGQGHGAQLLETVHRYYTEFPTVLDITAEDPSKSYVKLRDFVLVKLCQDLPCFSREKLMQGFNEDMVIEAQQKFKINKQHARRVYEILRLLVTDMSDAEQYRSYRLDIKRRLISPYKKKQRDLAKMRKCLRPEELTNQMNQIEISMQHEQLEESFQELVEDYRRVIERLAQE
Conditions: 200 μM, insitu.

For assay [8], the target named is T3, cysteines in MDA-MB-231 and Ramos cells (Homo sapiens, UniProt O14733).
T3 sequence (O14733 1-419): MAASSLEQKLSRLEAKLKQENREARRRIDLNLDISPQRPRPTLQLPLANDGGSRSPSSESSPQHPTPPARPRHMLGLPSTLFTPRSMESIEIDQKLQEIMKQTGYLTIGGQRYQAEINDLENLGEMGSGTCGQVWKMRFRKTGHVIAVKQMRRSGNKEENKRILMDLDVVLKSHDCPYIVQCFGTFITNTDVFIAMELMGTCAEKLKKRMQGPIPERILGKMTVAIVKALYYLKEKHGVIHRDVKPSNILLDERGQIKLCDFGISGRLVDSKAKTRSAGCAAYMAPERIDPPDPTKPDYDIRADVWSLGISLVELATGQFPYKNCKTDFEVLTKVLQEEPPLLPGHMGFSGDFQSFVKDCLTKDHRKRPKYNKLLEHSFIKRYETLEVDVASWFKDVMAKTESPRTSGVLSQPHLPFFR
The settings on record: 200 μM, insitu; for isoTOP-ABPP ratio, cysteine O14733_C131: 231.

The target of assay [9] is T4, cysteines in MDA-MB-231 and Ramos cells (Homo sapiens, UniProt Q8WVV9).
T4 sequence (Q8WVV9 1-542): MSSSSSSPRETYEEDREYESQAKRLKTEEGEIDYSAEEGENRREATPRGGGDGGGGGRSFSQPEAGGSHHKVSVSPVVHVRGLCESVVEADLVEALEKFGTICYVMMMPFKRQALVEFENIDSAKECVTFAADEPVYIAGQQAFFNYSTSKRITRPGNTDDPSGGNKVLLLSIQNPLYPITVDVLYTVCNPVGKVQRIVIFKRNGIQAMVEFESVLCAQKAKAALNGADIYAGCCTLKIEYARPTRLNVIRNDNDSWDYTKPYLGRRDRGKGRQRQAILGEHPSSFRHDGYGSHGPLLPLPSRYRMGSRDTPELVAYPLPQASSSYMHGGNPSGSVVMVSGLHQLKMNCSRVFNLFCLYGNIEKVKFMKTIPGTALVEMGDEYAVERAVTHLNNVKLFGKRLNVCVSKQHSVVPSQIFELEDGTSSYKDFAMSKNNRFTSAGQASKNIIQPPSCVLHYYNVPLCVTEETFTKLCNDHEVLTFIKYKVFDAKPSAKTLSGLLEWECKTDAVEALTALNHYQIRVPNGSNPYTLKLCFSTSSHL
Conditions: 200 μM, insitu, 231.

Chain of cysteines in MDA-MB-231 and Ramos cells (Homo sapiens, UniProt P45984) (P45984 whole entry): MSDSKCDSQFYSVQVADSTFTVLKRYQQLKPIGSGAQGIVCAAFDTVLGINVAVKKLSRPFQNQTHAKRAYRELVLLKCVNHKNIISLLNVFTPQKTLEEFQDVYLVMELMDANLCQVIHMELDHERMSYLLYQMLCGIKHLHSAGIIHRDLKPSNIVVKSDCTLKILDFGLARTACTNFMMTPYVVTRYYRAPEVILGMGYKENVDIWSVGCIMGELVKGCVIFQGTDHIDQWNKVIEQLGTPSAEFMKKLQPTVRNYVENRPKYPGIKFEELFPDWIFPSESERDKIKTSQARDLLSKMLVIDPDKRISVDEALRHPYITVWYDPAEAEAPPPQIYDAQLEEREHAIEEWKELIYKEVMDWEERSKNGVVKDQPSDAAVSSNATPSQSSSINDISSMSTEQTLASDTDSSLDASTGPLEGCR
Chain of cysteines in MDA-MB-231 and Ramos cells (Homo sapiens, UniProt P46109) (P46109 whole entry): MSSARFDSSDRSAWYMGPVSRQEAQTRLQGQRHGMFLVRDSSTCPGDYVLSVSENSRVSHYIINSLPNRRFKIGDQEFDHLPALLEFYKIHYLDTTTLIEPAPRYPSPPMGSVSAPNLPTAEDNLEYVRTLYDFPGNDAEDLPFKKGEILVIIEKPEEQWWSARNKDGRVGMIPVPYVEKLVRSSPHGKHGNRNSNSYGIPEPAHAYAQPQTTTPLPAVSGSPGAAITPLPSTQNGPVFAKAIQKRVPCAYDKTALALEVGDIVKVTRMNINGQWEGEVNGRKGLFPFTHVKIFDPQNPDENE
Chain of cysteines in MDA-MB-231 and Ramos cells (Homo sapiens, UniProt P68366) (P68366 whole entry): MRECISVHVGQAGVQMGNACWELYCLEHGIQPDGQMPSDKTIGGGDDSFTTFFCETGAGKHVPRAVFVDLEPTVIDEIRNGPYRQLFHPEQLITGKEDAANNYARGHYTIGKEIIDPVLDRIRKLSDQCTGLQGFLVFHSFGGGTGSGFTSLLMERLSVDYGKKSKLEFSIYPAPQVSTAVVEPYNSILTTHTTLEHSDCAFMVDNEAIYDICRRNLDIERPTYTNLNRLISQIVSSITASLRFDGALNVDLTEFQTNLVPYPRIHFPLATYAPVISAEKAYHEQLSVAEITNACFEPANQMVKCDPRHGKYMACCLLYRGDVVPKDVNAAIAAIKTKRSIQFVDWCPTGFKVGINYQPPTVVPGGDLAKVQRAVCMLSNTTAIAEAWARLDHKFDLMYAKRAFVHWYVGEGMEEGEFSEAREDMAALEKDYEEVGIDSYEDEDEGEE
Chain of cysteines in MDA-MB-231 and Ramos cells (Homo sapiens, UniProt Q5MNZ6) (Q5MNZ6 whole entry): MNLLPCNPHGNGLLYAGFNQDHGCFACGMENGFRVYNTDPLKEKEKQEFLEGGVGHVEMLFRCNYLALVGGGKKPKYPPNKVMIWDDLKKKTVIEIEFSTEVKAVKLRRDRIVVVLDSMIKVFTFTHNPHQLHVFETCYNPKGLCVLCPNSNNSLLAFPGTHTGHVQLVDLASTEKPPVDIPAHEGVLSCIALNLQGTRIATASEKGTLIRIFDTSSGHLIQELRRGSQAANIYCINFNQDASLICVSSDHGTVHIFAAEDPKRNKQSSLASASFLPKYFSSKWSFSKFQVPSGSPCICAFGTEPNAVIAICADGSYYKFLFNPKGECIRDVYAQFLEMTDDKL

On to `COc1ccc2c(c1)CCCN2C(=O)CCl` [compound 2], for which the “isoTOP-ABPP reactivity P46109_0249 CRKL” value in [1] (231) amounted to 20.0. Also, the “isoTOP-ABPP reactivity P68366_C54 TUBA4A” value in assay [2] (200 μM, insitu, 231) stood at 9.7. In addition, the “isoTOP-ABPP reactivity Q14790_C360 CASP8” value in assay [3] (200 μM, insitu, 231) is given as 20.0. Further, the “isoTOP-ABPP reactivity Q9NRW3_C130 APOBEC3C” value in [4] (200 μM, insitu, 231) came out at 20.0.

`COc1ccc(C2CC(c3cccs3)=NN2C(=O)CCl)cc1` (centres unmarked) [compound 4]: the “isoTOP-ABPP reactivity P45984_C177 MAPK9” value in [5] (100 μM in situ 231) amounted to 12.0. For the same compound, in [2] (100 μM in situ 231), the “isoTOP-ABPP reactivity P68366_C54 TUBA4A” value stood at 0.8. Besides, the “isoTOP-ABPP reactivity Q14790_C360 CASP8” value in assay [3] (100 μM in situ 231) stood at 20.0. Besides, in [6] (100 μM in situ 231), the “isoTOP-ABPP reactivity Q5MNZ6_C63 WDR45L” value is 2.0. For the same compound, the “isoTOP-ABPP reactivity Q9NRW3_C130 APOBEC3C” value in [4] (100 μM in situ 231) worked out at 20.0.

With `COc1cc2c(cc1OC)CN(C(=O)CCl)CC2` [compound 8], the “isoTOP-ABPP reactivity P45984_C177 MAPK9” value in assay [5] (200 μM, insitu, 231) is given as 20.0. In addition, the “isoTOP-ABPP reactivity P68366_C54 TUBA4A” value in [2] (200 μM, insitu, 231) stood at 0.9. The “isoTOP-ABPP reactivity Q5MNZ6_C63 WDR45L” value in assay [6] (200 μM, insitu, 231) stood at 20.0.

For the compound `O=C(CCl)N1CCC(Cc2ccccc2)CC1` [compound 9], in assay [7] (231), the “isoTOP-ABPP reactivity O14929_C101 HAT1” value came to 9.0. In addition, the “isoTOP-ABPP reactivity P46109_0249 CRKL” value in assay [1] (231) worked out at 6.7.

Take `O=C(CCl)N1CCN(S(=O)(=O)c2ccccc2F)CC1` [compound 10]: the “isoTOP-ABPP ratio, cysteine O14733_C131” value in assay [8] is listed as 1.8. Besides, in [7] (231), the “isoTOP-ABPP ratio O14929_C101” value amounted to 20.0. In [5] (200 μM, insitu, 231), the “isoTOP-ABPP ratio P45984_C177” value was found to be 20.0. Besides, the “isoTOP-ABPP ratio P46109_C249” value in assay [1] (231) was determined as 20.0. Besides, the “isoTOP-ABPP ratio P68366_C54” value in [2] (200 μM, insitu, 231) is recorded as 7.9; in [2] (200 μM, insitu, ramos) it was 2.8. The “isoTOP-ABPP ratio Q14790_C360” value in [3] (200 μM, insitu, ramos) came out at 5.8. Also, the “isoTOP-ABPP ratio Q5MNZ6_C63” value in assay [6] (200 μM, insitu, 231) came out at 3.6.

Consider `O=C(CCl)NC(=O)NC12CC3CC(CC(C3)C1)C2` [compound 12], for which the “isoTOP-ABPP ratio, cysteine O14733_C131” value in assay [8] stood at 1.7. Further, in assay [7] (231), the “isoTOP-ABPP ratio O14929_C101” value came to 20.0. Also, the “isoTOP-ABPP ratio P45984_C177” value in assay [5] (200 μM, insitu, 231) came to 2.1. The “isoTOP-ABPP ratio P46109_C249” value in [1] (231) stood at 20.0. Moreover, in [6] (200 μM, insitu, 231), the “isoTOP-ABPP ratio Q5MNZ6_C63” value was found to be 20.0. Moreover, the “isoTOP-ABPP ratio, cysteine Q8WVV9_C464” value in assay [9] is 20.0.

As to `CC(C)CCOCCNC(=O)CCl` [compound 27], the “isoTOP-ABPP ratio P45984_C177” value in [5] (200 μM, insitu, 231) is given as 0.5. Moreover, the “isoTOP-ABPP ratio P68366_C54” value in [2] (200 μM, insitu, 231) is on record as 0.3. Besides, in [3] (200 μM, insitu, 231), the “isoTOP-ABPP ratio Q14790_C360” value is recorded as 0.4. In addition, in [4] (200 μM, insitu, 231), the “isoTOP-ABPP ratio Q9NRW3_C130” value amounted to 1.3.

On to `COc1ccccc1OCCNC(=O)CCl` [compound 28], for which, in assay [6] (200 μM, insitu, 231), the “isoTOP-ABPP ratio Q5MNZ6_C63” value amounted to 1.7.

With `O=C(CCl)N1CCN(CC(=O)N2CCOCC2)CC1` [compound 29], the “isoTOP-ABPP ratio O14733_C131” value in assay [8] (ramos) stood at 1.0. In addition, the “isoTOP-ABPP ratio O14929_C101” value in assay [7] (ramos) is 1.0. For the same compound, in assay [5] (200 μM, insitu, ramos), the “isoTOP-ABPP ratio P45984_C177” value was found to be 1.7. Also, the “isoTOP-ABPP ratio P46109_C249” value in assay [1] (ramos) turned out to be 4.2. Moreover, in assay [2] (200 μM, insitu, ramos), the “isoTOP-ABPP ratio P68366_C54” value is 1.0. The “isoTOP-ABPP ratio Q14790_C360” value in assay [3] (200 μM, insitu, ramos) is given as 1.6. For the same compound, the “isoTOP-ABPP ratio Q9NRW3_C130” value in assay [4] (200 μM, insitu, ramos) came to 13.3.

On to `CC1CCc2ccccc2N1C(=O)CCl` (centres unmarked) [compound 45], for which the “isoTOP-ABPP ratio O14929_C101” value in assay [7] (231) came out at 20.0. Besides, the “isoTOP-ABPP ratio P46109_C249” value in assay [1] (231) is 20.0. The “isoTOP-ABPP ratio Q14790_C360” value in [3] (200 μM, insitu, 231) was 20.0. Moreover, the “isoTOP-ABPP ratio Q5MNZ6_C63” value in [6] (200 μM, insitu, 231) was 2.6. In assay [9], the “isoTOP-ABPP ratio Q8WVV9_C464” value was 20.0. The “isoTOP-ABPP ratio Q9NRW3_C130” value in [4] (200 μM, insitu, 231) is 20.0.

For `O=C(CCl)Nc1cccc2ncccc12` [compound 51], the “isoTOP-ABPP ratio Q8WVV9_C464” value in assay [9] is given as 3.2.
